Laboratory results published in publication PMC12030497, “Plasma Protein Binding, Biostability, Metabolite Profiling, and CYP450 Phenotype of TPB15 Across Different Species: A Novel Smoothened Inhibitor for TNBC Therapy” (Pharmaceutics, 2025).
Several values for one entry are separate records, joined by “and”; a condition that tells them apart may be missing. Identical values can stand only once.

What was measured:
[1] = Metabolic stability in dog liver microsomes (DLM); format: in vitro ADME, beagle dog; conditions: DLM; for Concentration (ng/mL) of testosterone, Mean: positive control substrate
Method: (§1) A total of 450 μL liver microsomes from mice, rat, dog, monkey, and human were spiked with 0.5 μL of TPB15 solution and pre-incubated in a water bath at 37 °C for 10 min. Following this, 50 μL of NADPH were added to initiate the reaction. The concentrations of each substance in the incubation system are detailed in Table 1. After initiating the metabolic reaction, 50 μL aliquots were removed at incubation times of 0, 5, 15, 30, 45, 60, and 90 min and transferred to 150 μL of icy methanol solution containing the internal standard to terminate the reaction. The mixtures were swirled for 2 min and then centrifuged at 14,800 rpm at 4 °C for 10 min. […] Three samples were prepared in parallel at each time point. Additionally, both a positive control group and a blank control group were established. In the positive control group, substrate testosterone was incubated with liver microsomes from mice, rat, dog, monkey, and human. The concentrations of substrate testosterone were measured at 0 and 90 min, and the changes in concentration before and after incubation were compared to confirm the activity of the liver microsomes. The blank control group included one drug-containing inactivated liver microsome sample for each species. The metabolic stability parameters, including in vitro elimination half-life (T1/2) and in vitro intrinsic clearance rate (CLint), were calculated based on this graph using the following formulas: in vitro elimination half-life (T1/2) = −0.693/k and in vitro intrinsic clearance rate (CLint) = (0.693 × incubation medium (mL))/(liver microsomes (mg) × T1/2).

[2] = Metabolic stability in rat liver microsomes (RLM); format: in vitro ADME, Sprague-Dawley rat; conditions: RLM; for Concentration (ng/mL) of testosterone, Mean: positive control substrate
Method: as §1

[3] = Metabolic stability in monkey liver microsomes (MLM); format: in vitro ADME, crab-eating monkey; conditions: MLM; for Concentration (ng/mL) of testosterone, Mean: positive control substrate
Method: as §1

[4] = Metabolic stability in human liver microsomes (HLM); format: in vitro ADME; conditions: HLM; for Concentration (ng/mL) of testosterone, Mean: positive control substrate
Method: as §1

[5] = Metabolic stability in mouse liver microsomes (MouLM); format: in vitro ADME, KM mice; conditions: MouLM, 0 min
Method: as §1

CYP2C9 = CYP2C9 (Homo sapiens, UniProt P11712); conditions: inhibition of TPB15 metabolism, HLM, 90 min, Sulfaphenazole 20 μM (CYP2C9)
Sequence of CYP2C9 (P11712 whole entry): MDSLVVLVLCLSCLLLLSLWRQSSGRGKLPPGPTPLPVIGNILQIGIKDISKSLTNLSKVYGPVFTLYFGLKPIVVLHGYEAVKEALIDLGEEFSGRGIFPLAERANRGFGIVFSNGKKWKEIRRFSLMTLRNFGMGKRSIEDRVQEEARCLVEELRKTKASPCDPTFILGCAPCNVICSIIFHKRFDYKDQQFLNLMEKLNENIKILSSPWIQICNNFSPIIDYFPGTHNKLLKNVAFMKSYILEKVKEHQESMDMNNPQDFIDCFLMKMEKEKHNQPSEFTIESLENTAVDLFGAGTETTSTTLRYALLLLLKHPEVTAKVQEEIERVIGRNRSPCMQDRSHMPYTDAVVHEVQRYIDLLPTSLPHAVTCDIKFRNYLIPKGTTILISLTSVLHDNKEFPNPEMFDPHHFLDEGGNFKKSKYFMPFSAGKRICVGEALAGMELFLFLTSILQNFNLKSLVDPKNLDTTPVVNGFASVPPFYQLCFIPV
Method: (§2) The specific inhibitors of P450 were employed to evaluate the metabolic phenotype of TPB15, and the metabolic enzymes corresponding to each inhibitor and the system concentration are shown in Table 2. The specific procedure was as follows: a total of 0.5 μL of the substrate TPB15 and 0.5 μL of each specific inhibitor were mixed with 449 μL of human liver microsomes, and the mixture was incubated at 37 °C for 10 min. Subsequently, 50 μL of NADPH with a concentration of 10 mM in PBS were introduced to initiate the reaction. After 90 min, 50 μL of the reaction mixture were transferred to a 150 μL ice-cold methanol solution containing an internal standard to terminate the reaction. The mixture was vortexed for 2 min and then centrifuged at 4 °C at 14,800 rpm for 10 min. A volume of 130 μL of the supernatant was then transferred to a new EP tube, which was centrifuged again at 4 °C at 14,800 rpm for another 10 min. Finally, 5 μL of the supernatant were injected for the determination of substrate TPB15 concentration. Three parallel samples were prepared for each time point. The experiment also included a positive control group and a negative control group. In the positive control group, substrate TPB15 was incubated with human liver microsomes for 90 min without the addition of inhibitors.

[6] = tested on: CYP450 enzymes in human liver microsomes; assay: Metabolic enzyme phenotype of TPB15 in human liver microsomes with selective CYP450 inhibitors; format: in vitro ADME; conditions: 90 min
Method: The specific procedure was as follows: a total of 0.5 μL of the substrate TPB15 and 0.5 μL of each specific inhibitor were mixed with 449 μL of human liver microsomes, and the mixture was incubated at 37 °C for 10 min. Subsequently, 50 μL of NADPH with a concentration of 10 mM in PBS were introduced to initiate the reaction. After 90 min, 50 μL of the reaction mixture were transferred to a 150 μL ice-cold methanol solution containing an internal standard to terminate the reaction. The mixture was vortexed for 2 min and then centrifuged at 4 °C at 14,800 rpm for 10 min. A volume of 130 μL of the supernatant was then transferred to a new EP tube, which was centrifuged again at 4 °C at 14,800 rpm for another 10 min. Finally, 5 μL of the supernatant were injected for the determination of substrate TPB15 concentration. Three parallel samples were prepared for each time point. The experiment also included a positive control group and a negative control group. In the positive control group, substrate TPB15 was incubated with human liver microsomes for 90 min without the addition of inhibitors. In the negative control group, the substrate TPB15 was incubated for 90 min without inhibitors, with human liver microsomes replaced by an equal volume of phosphate-buffered saline (PBS). The metabolic rate of TPB15 in human liver microsomes was represented by the elimination rate of the substrate TPB15.

CYP2A6 = target: T1, CYP2A6 (Homo sapiens, UniProt P11509); assay: TPB15 metabolism in human liver microsomes with CYP2A6 inhibitor; format: in vitro ADME; conditions: inhibition of TPB15 metabolism, HLM, 90 min, Coumarin 25 μM (CYP2A6)
T1 construct: tissue Jiangsu Kejing Bio-Pharmaceutical Co., Ltd; host or cells: human liver microsomes
T1 sequence (P11509 1-494): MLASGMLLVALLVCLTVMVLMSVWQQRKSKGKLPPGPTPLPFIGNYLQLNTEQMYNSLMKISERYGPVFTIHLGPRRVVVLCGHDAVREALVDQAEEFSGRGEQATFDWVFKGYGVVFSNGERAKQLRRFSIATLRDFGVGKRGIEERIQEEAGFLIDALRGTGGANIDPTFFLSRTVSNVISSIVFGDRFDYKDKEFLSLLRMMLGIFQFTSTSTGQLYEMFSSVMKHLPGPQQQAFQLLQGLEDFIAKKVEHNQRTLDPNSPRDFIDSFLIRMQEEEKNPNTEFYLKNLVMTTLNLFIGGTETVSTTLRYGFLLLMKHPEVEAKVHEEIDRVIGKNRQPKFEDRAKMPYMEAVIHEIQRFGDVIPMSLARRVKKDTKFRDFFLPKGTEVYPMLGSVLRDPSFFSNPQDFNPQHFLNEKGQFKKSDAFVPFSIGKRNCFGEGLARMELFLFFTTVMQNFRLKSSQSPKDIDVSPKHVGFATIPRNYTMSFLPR
Method: as §2

CYP2C8 = target: T2, CYP2C8 (Homo sapiens, UniProt P10632); assay: TPB15 metabolism in human liver microsomes with CYP2C8 inhibitor; format: in vitro ADME; conditions: inhibition of TPB15 metabolism, HLM, 90 min, Quercetin 20 μM (CYP2C8)
T2 construct: tissue Jiangsu Kejing Bio-Pharmaceutical Co., Ltd; host or cells: human liver microsomes
T2 sequence (P10632 1-490): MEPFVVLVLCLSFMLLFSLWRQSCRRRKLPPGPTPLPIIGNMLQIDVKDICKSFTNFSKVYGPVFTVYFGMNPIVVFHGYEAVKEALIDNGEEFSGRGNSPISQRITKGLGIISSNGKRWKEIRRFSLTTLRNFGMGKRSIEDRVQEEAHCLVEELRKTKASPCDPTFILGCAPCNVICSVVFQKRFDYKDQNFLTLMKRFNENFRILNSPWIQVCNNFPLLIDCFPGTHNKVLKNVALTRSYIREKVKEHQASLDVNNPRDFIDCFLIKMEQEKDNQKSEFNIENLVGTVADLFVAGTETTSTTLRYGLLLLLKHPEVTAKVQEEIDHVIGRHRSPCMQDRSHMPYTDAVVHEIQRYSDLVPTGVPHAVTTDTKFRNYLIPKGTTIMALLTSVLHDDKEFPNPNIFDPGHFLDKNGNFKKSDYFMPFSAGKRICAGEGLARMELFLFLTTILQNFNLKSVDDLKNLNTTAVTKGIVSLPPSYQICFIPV
Method: Three parallel samples were prepared for each time point.

C[C@]12CC[C@H]3[C@@H](CCC4=CC(=O)CC[C@@]43C)[C@@H]1CC[C@@H]2O [testosterone]
Concentration (ng/mL) of testosterone, single samples (serial number 1-3) ([1]; 0 min): 300 ng/mL and 364 ng/mL and 375 ng/mL | Concentration (ng/mL) of testosterone, Mean ([1]; 0 min): 346.3 ng/mL | Concentration (ng/mL) of testosterone, Mean ([1]; 90 min): 17.5 ng/mL | Concentration (ng/mL) of testosterone, single samples (serial number 1-3) ([2]; 0 min): 331 ng/mL and 303 ng/mL | Concentration (ng/mL) of testosterone, Mean ([2]; 0 min): 321.7 ng/mL | Concentration (ng/mL) of testosterone, Mean ([2]; 90 min): 22.6 ng/mL | Concentration (ng/mL) of testosterone, single samples (serial number 1-3) ([3]; 0 min): 293 ng/mL and 385 ng/mL and 301 ng/mL | Concentration (ng/mL) of testosterone, Mean ([3]; 0 min): 326.4 ng/mL | Concentration (ng/mL) of testosterone, single samples (serial number 1-3) ([3]; 90 min): 29.2 ng/mL and 39.7 ng/mL and 38.2 ng/mL | Concentration (ng/mL) of testosterone, Mean ([3]; 90 min): 35.7 ng/mL | Concentration (ng/mL) of testosterone, single samples (serial number 1-3) ([4]; 0 min): 273 ng/mL and 379 ng/mL and 308 ng/mL | Concentration (ng/mL) of testosterone, Mean ([4]; 0 min): 320.0 ng/mL | Concentration (ng/mL) of testosterone, single samples (serial number 1-3) ([4]; 90 min): 19.2 ng/mL and 22.9 ng/mL and 34.7 ng/mL | Concentration (ng/mL) of testosterone, Mean ([4]; 90 min): 25.6 ng/mL | Concentration (ng/mL) of testosterone, single samples (serial number 1-3) [5]: 400 ng/mL and 314 ng/mL and 356 ng/mL | Concentration (ng/mL) of testosterone, Mean ([5]; positive control substrate): 356.7 ng/mL

Nc1ccc(S(=O)(=O)Nc2ccnn2-c2ccccc2)cc1 [Sulfaphenazole, reference compound]
Inhibitor Rate (%) (CYP2C9): 81.22% | effect of selective CYP450 inhibitor on TPB15 metabolism (significance vs positive control group) [6]: significantly inhibited

O=c1ccc2ccccc2o1 [Coumarin]
Inhibitor Rate (%) (CYP2A6): 6.60%

O=c1c(O)c(-c2ccc(O)c(O)c2)oc2cc(O)cc(O)c12 [Quercetin]
Inhibitor Rate (%) (CYP2C8): 8.63%
